Usually IC50 stands for the midpoint of a concentration-inhibition curve. Low values mean greater potency in that assay, high ones weaker potency in that assay. For orientation: inhibition means the percentage by which the read-out fell short of the control. A lower inhibition goes with a response near the control. In general, Ki refers to the equilibrium dissociation constant of an inhibitor or competing ligand from its target. Higher therefore signals lower affinity.

Assay [1] has as its target PIK3CG (human) (UniProt P48736). The assay is described as follows: Inhibition of PIK3CG Kinase Activity.
In assay [2] the target is PIK3CA (human) (UniProt P42336). As to the kind of experiment: Assessment of PIK3CA Kinase Activity.
Chain of PIK3CA (human) (P42336 whole entry, looked up): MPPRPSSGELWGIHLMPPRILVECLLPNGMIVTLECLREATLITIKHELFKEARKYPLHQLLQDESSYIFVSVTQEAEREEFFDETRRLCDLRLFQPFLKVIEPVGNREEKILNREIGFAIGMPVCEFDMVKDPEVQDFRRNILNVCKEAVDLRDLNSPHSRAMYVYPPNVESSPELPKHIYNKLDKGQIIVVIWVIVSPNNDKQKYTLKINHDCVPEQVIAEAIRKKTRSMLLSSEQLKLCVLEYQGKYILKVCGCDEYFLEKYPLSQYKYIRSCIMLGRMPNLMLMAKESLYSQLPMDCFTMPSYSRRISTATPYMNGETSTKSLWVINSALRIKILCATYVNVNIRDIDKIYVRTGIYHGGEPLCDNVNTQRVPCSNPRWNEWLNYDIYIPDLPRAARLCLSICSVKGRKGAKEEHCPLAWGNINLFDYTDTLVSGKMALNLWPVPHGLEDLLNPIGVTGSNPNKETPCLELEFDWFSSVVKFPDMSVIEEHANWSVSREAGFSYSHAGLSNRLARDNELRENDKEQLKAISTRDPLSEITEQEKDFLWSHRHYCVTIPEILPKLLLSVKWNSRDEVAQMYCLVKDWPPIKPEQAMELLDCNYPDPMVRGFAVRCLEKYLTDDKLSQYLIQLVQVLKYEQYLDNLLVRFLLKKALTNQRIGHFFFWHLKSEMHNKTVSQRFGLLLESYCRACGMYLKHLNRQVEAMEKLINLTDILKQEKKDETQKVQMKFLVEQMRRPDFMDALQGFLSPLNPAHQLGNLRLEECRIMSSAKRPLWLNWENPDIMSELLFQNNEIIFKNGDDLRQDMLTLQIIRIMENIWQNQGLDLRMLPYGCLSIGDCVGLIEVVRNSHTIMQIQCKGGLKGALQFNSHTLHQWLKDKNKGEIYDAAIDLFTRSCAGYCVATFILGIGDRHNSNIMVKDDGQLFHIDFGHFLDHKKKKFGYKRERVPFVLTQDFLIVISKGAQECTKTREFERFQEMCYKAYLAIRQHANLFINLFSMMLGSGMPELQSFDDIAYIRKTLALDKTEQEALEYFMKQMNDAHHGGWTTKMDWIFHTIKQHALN
Assay [3] addresses MAPK14 (UniProt Q16539). As to the kind of experiment: Inhibition of MAPK14 Kinase Activity.
Assay [4] addresses MAPK14 (human) (UniProt Q16539). As to the kind of experiment: Assessment of MAPK14 Kinase Activity.
The target of assay [5] is CDK2 (UniProt P24941). As to the kind of experiment: Enzyme Assay. Conditions: concentration not given here.
Assay [6] has as its target MAPK14 (human) (UniProt Q16539). The assay is described as follows: Inhibition of MAPK14 Kinase Activity. Conditions: concentration not given here.

Values joined by “and” are separate entries in the source; they are usually repeats but may differ in a detail not shown here. Equal values may be shown once.

Chain of MAPK14 (human) (Q16539 whole entry, looked up): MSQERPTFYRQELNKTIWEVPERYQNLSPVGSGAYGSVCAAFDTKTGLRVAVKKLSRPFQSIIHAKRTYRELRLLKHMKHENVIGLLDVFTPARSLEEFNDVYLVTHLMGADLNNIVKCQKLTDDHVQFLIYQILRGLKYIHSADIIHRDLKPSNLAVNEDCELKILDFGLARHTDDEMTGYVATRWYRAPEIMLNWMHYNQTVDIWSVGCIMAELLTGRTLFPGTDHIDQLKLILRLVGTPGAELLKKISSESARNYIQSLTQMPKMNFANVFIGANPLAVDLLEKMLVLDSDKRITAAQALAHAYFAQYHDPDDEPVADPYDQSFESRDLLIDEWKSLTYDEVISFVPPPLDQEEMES
Chain of PIK3CG (human) (P48736 whole entry, looked up): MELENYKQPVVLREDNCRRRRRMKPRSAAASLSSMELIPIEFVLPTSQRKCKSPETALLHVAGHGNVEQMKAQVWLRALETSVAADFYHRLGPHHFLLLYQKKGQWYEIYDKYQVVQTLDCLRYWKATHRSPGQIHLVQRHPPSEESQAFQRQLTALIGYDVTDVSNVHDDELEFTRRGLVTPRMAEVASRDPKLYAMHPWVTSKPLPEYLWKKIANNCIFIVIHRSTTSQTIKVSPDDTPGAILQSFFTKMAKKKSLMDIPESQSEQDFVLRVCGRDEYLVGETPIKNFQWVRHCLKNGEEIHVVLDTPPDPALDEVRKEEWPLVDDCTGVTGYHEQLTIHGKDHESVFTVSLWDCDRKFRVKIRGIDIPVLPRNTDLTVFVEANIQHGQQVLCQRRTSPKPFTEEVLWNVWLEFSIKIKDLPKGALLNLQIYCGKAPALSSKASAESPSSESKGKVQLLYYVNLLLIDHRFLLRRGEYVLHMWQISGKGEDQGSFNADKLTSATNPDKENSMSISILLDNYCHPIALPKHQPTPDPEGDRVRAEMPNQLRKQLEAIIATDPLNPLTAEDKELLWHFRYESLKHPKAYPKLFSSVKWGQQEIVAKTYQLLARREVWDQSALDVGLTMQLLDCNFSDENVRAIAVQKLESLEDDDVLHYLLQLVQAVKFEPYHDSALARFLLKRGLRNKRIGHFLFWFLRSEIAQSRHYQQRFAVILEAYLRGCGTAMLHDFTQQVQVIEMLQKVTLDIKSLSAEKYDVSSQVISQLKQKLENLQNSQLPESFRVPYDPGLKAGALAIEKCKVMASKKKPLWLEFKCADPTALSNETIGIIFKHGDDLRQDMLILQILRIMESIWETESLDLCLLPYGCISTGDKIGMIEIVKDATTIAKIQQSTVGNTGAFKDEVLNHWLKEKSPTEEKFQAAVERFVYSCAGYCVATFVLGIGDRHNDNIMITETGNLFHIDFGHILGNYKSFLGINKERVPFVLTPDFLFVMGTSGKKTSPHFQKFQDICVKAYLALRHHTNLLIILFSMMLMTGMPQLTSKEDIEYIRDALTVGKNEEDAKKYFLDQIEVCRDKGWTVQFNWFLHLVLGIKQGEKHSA
Chain of MAPK14 (Q16539 whole entry, looked up): as the sequence (Q16539 whole entry, looked up) above

Consider `CC(C)(C)NS(=O)(=O)c1cncc(-c2ccc3nc(N)cn3n2)c1`, for which, in assay [1], the IC50 was less than 200 nM.

In assay [1], `COc1ccc(OC)c(Nc2nc3ccccc3nc2NS(=O)(=O)c2ccc3c(c2)sc(=O)n3C)c1` returned an IC50 of 240 nM. In turn, `COc1cc2sc(C(=O)Nc3nn[nH]n3)c(O[C@H]3C[C@H](C)C[C@H](C)C3)c2cc1OC` yielded an IC50 in assay [1] of 103 nM. For the compound `Cc1ncnc(N2CCC(C)(O)CC2)c1C#Cc1ccc(N)nc1`, the IC50 in assay [2] worked out at 38 nM. With `NCC(=O)N1CCC(c2cc(N3CCOCC3)nc(-n3c(C(F)F)nc4ccccc43)n2)CC1`, the IC50 in assay [2] amounted to 300 nM. This IC50 lies about 7.9-fold higher than the previous one. On the same count and under the same terms, the value for `COc1cccc(Nc2nc(-c3cccc4[nH]nc(N)c34)nc3c2cnn3C)c1OC` was 11 nM; that for `CCc1ncnc(N2CCC3(CCN(C)CC3)CC2)c1C#Cc1ccc(N)nc1` was 136 nM; that for `CC(C)(C)COC(=O)NCc1ccc(NC(=O)Nc2ccc(-c3nc(CS(C)(=O)=O)cc(N4CC5CCC(C4)O5)n3)cc2)cc1` was 1930 nM.

`COC[C@H]1OC(=O)c2coc3c2[C@@]1(C)C1=C(C3=O)[C@@H]2CCC(=O)[C@@]2(C)C[C@H]1O`: the IC50 in assay [1] stood at 26 nM. In other words, the double-digit nanomolar range.

The compound `COc1ccc(-c2ccc3nc(N)cn3n2)cc1OC` showed a half-inhibitory concentration (IC50) in assay [1] of less than 200 nM. As to `COc1ccc(OC)c(Nc2nc3ccccc3nc2NS(=O)(=O)c2cn(C)cn2)c1`, the half-inhibitory concentration (IC50) in assay [1] is 80 nM. In assay [2], `CCOC(=O)N1CCC(n2ncc3c(N4CCO[C@@H](C)C4)nc(-c4ccc(NC(=O)Nc5ccncc5)cc4)nc32)CC1` gave a half-maximal inhibitory concentration (IC50) of 18 nM. With `CC(=O)Nc1nc(C)c(-c2csc(NCCC(N)=O)n2)s1`, the IC50 in assay [1] came to 64 nM. That is a double-digit nanomolar value. As to `CSc1nc(-c2ccc(F)cc2)c(-c2ccncc2)[nH]1`, the concentration for half-maximal inhibition (IC50) in assay [3] is 630 nM; in assay [4] it was 69 nM and 70 nM. In turn, `NCC(=O)N1CCN(c2cc(N3CCOCC3)nc(-n3c(C(F)F)nc4ccccc43)n2)CC1` yielded a concentration for half-maximal inhibition (IC50) in assay [2] of 100 nM. In turn, `NCCC1CCN(c2nc(N3CCOCC3)cc(-n3c(C(F)F)nc4ccccc43)n2)CC1` gave an IC50 in assay [2] of 200 nM.

Regarding `NC(=O)c1ccc(NC(=O)Nc2ccc(-c3cc(N4CC5CCC(C4)O5)nc(-c4ccc(NC(=O)Nc5ccc(C(N)=O)cc5)cc4)n3)cc2)cc1`, in assay [2], the IC50 was 44.5 nM. Against the preceding compound, the IC50 is about 4.5-fold lower. `Cc1nc(NCC(=O)N(C)C)cc(-c2c(Nc3ccn(C)n3)nc3cccnn23)n1`: the IC50 in assay [2] turned out to be 20100 nM. The same measure, in the same setting: with `Cn1c(=NC#N)n(-c2ccc(C(C)(C)C#N)nc2)c2c3cc(-c4ccnc(N5CCOCC5)c4Cl)ccc3ncc21` the figure was 10 to 1000 nM; with `NCC(=O)N1CCN(c2nc(N3CCOCC3)cc(-n3c(C(F)F)nc4ccccc43)n2)CC1`, 100 nM.

Compound `Cc1cc(-c2sc(NC(=O)NCC(=O)N(C)C)nc2C)nc([S+](C)[O-])n1` (stereo not drawn) gave an IC50 in assay [1] of 16 nM.

`CCN(CC)C(C)=C1C(=O)O[C@H](COC)[C@@]2(C)C1=C(O)C(=O)C1=C2[C@H](OC(C)=O)C[C@]2(C)C(=O)CC[C@@H]12` gave an IC50 in assay [1] of 80 nM. In the case of `CN(C(=O)c1cc2c(s1)-c1ccccc1OC2)c1ccccc1F`, the IC50 in assay [2] came out at 254 nM. `CCOC1CCN(c2ncnc(CC)c2C#Cc2ccc(N)nc2)CC1`: in assay [2], the IC50 worked out at 77 nM.

The compound `COc1cccc2c1nc(C(F)F)n2-c1nc(N2CCOCC2)cc(N2CCN(C(=O)CN)CC2)n1` registered an IC50 in assay [2] of 20 nM. In assay [2], `NC(=O)[C@@H]1CCCCN1C1CCN(c2nc(N3CCOCC3)cc(-n3c(C(F)F)nc4ccccc43)n2)CC1` yielded a half-maximal inhibitory concentration (IC50) of 600 nM. Turning to `O=C(Nc1cccc(-c2cc(N3CCOCC3)nc(-c3cccc(CO)c3)n2)c1)C1CCNCC1`, the IC50 in assay [2] was 100 nM. Consider `Nc1n[nH]c(N)c1N=Nc1ccc(O)cc1`, for which the activity in assay [5] was determined as 31%; in assay [6], 82%. The values for the inhibition in assay [5] and in assay [3] (concentration not given here) were 69% and 18%, respectively. `CC(=O)Nc1nc(C)c(-c2csc(Nc3cccc(-c4nnn[nH]4)c3)n2)s1` showed an IC50 in assay [1] of 9 nM.

In turn, `Cc1nc(NC(=O)NCCC(=O)OC(C)(C)C)sc1-c1ccncc1` had a half-inhibitory concentration (IC50) in assay [1] of 50 nM. On to `NCc1ccc(NC(=O)c2cccc(-c3cc(N4CCOCC4)nc(-c4cccc(CO)c4)n3)c2)cc1`, for which, in assay [2], the IC50 worked out at 100 nM. `OCc1cccc(-c2nc(N3CCOCC3)c3cnn(C4CCNCC4)c3n2)c1` showed a half-inhibitory concentration (IC50) in assay [1] of 510 nM. As to `OCc1cccc(-c2cc(-n3c(C(F)F)nc4ccccc43)nc(N3CCOCC3)n2)c1`, the IC50 in assay [2] is 300 nM.

The compound `O=C1NC(=S)S/C1=C\c1ccc2ncnc(N3CCC(F)CC3)c2n1` displayed an IC50 in assay [1] of 2 nM. In other words, the single-digit nanomolar range. The compound `CC(C)n1nnc(CCNC(=O)Nc2cn3cc(-c4cnc5ccccc5c4)ccc3n2)n1` showed a Ki in assay [1] of 570 nM. With `COc1cc2sc(C(=O)Nc3nnn[nH]3)c(OC3C[C@@H](C)C[C@@H](C)C3)c2cc1OC` (stereo partly drawn), the IC50 in assay [1] came to 32 nM. As for `NCC(=O)N1CC=C(c2cc(N3CCOCC3)nc(-n3c(C(F)F)nc4ccccc43)n2)CC1`, in assay [2], the IC50 was determined as 100 nM. `CCOC(=O)N1CCC(n2ncc3c(N4CCO[C@H](C)C4)nc(-c4ccc(NC(=O)NCCF)cc4)nc32)CC1` returned a concentration for half-maximal inhibition (IC50) in assay [2] of 4550 nM.

As to `COc1cc2sc(C(=O)Nc3nnn[nH]3)c(OC3CCCC[C@H]3C)c2cc1OC` (stereo partly drawn), the IC50 in assay [1] was 101 nM. This counts as sub-micromolar.

The record behind these values is the Kinase Knowledgebase extract (Sharma et al. 2016).
